Laboratory results from patent US11180462B2, “Microbiocidal oxadiazole derivatives” (SYNGENTA PARTICIPATIONS AG, priority 2015, dated 2021).

Columns and labels:
[1] = tested on: Puccinia recondita f. Sp. Tritici; assay: Fungicidal activity against Puccinia recondita f. sp. tritici / wheat / leaf disc preventative (brown rust); format: in vivo; conditions: foliar, 200 ppm in the applied formulation, wheat leaf segments, preventative, compared to untreated control leaf disks, read-out: disease control
In short: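 200 ppm spray on wheat cv. Kanzler leaf segments; spore inoculation +1 day; 19° C., 75% rh, 12 h/12 h light cycle; single rating of % control vs untreated at 7 to 9 days.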

Phakopsora Pachyrhizi = assay: Fungicidal activity against Phakopsora pachyrhizi / soybean / leaf disc preventative (Asian soybean rust); format: in vivo; conditions: foliar, 200 ppm in the applied formulation, soybean leaf disks, compared to untreated control leaf disks, read-out: disease control
In short: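 Scored 12 to 14 days post-application as percent control relative to untreated check discs, rust spores were sprayed under the disc one day after compound treatment. Incubation: 20°C, 75% rh, first 24–36 h in darkness, then 12 h daily light; discs kept on water agar.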

[2] = tested on: Puccinia recondita f. Sp. Tritici; assay: Fungicidal activity against Puccinia recondita f. sp. tritici / wheat / leaf disc curative (brown rust); format: in vivo; conditions: foliar, 24 h, 200 ppm in the applied formulation, wheat leaf segments, curative (applied 1 day after inoculation), compared to untreated control leaf disks, read-out: disease control
In short: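 Segments of wheat cv. Kanzler were laid on agar and inoculated with a spore suspension of the rust, then held in darkness at 19° C and 75% relative humidity. One day later the water-diluted formulated compound was applied, with incubation continued under a 12 h light/dark cycle.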

[3] = tested on: Glomerella lagenarium (Colletotrichum lagenarium); assay: Fungicidal activity against Glomerella lagenarium (Colletotrichum lagenarium) liquid culture / cucumber / preventative (anthracnose); format: cell-based; conditions: Colletotrichum orbiculare; 20 ppm in the applied formulation; liquid culture (PDB), growth inhibition measured photometrically after 3 to 4 days; compared to untreated control; read-out: disease control
In short: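 Percent activity against the untreated check was derived from photometric growth measurements made 2 to 7 days after conidia in potato dextrose broth were combined with compound at 20 ppm. Cultures were kept dark at 24 °C and 96% humidity.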

CN(Cc1ccc(-c2noc(C(F)(F)F)n2)cc1)C(=O)C1CC1(F)F (stereo not drawn) [Compound 1.523, 2,2-difluoro-N-methyl-N-[[4-[5-(trifluoromethyl)-1,2,4-oxadiazol-3-yl]phenyl]methyl]-cyclopropane-carboxamide]
≥ 80%: pest or weed control at 200 ppm [1] | pest or weed control at 200 ppm (Phakopsora Pachyrhizi) | pest or weed control at 200 ppm [2] | inhibition of growth at 20 ppm [3]

CON(Cc1ccc(-c2noc(C(F)(F)F)n2)cc1)C(=O)CC1CCCC1 [Compound 1.8, 2-cyclopentyl-N-methoxy-N-[[4-[5-(trifluoromethyl)-1,2,4-oxadiazol-3-yl]phenyl]methyl]-acetamide]
≥ 80%: pest or weed control at 200 ppm [1] | pest or weed control at 200 ppm (Phakopsora Pachyrhizi) | pest or weed control at 200 ppm [2] | inhibition of growth at 20 ppm [3]

CC1(C)CC1C(=O)N(Cc1ccc(-c2noc(C(F)(F)F)n2)cc1)C1CC1 (stereo not drawn) [Compound 1.124, N-cyclopropyl-2,2-dimethyl-N-[[4-[5-(trifluoromethyl)-1,2,4-oxadiazol-3-yl]phenyl]methyl]-cyclopropane-carboxamide]
≥ 80%: pest or weed control at 200 ppm [1] | pest or weed control at 200 ppm (Phakopsora Pachyrhizi) | pest or weed control at 200 ppm [2] | inhibition of growth at 20 ppm [3]

CC1(C(=O)OCCN(Cc2ccc(-c3noc(C(F)(F)F)n3)cc2)C(=O)C2(C)COC2)COC1 [Compound 1.722, 2-[(3-methyloxetane-3-carbonyl)-[[4-[5-(trifluoromethyl)-1,2,4-oxadiazol-3-yl]phenyl]methyl]-amino]ethyl 3-methyloxetane-3-carboxylate]
≥ 80%: pest or weed control at 200 ppm [1] | pest or weed control at 200 ppm (Phakopsora Pachyrhizi) | pest or weed control at 200 ppm [2]

COC(C)C(=O)N(CCO)Cc1ccc(-c2noc(C(F)(F)F)n2)cc1 (stereo not drawn) [Compound 1.731, N-(2-hydroxyethyl)-2-methoxy-N-[[4-[5-(trifluoromethyl)-1,2,4-oxadiazol-3-yl]phenyl]methyl]-propanamide]
≥ 80%: pest or weed control at 200 ppm [1] | pest or weed control at 200 ppm (Phakopsora Pachyrhizi) | pest or weed control at 200 ppm [2]

O=C(C1CCOC1)N(CCO)Cc1ccc(-c2noc(C(F)(F)F)n2)cc1 (stereo not drawn) [Compound 1.711, N-(2-hydroxyethyl)-N-[[4-[5-(trifluoromethyl)-1,2,4-oxadiazol-3-yl]phenyl]methyl]-tetrahydrofuran-3-carboxamide]
≥ 80%: pest or weed control at 200 ppm [1] | pest or weed control at 200 ppm (Phakopsora Pachyrhizi) | pest or weed control at 200 ppm [2]

COC(C)C(=O)OCCN(Cc1ccc(-c2noc(C(F)(F)F)n2)cc1)C(=O)C(C)OC (stereo not drawn) [Compound 1.732, 2-[2-methoxypropanoyl-[[4-[5-(trifluoromethyl)-1,2,4-oxadiazol-3-yl]phenyl]methyl]-amino]ethyl 2-methoxypropanoate]
≥ 80%: pest or weed control at 200 ppm [1] | pest or weed control at 200 ppm (Phakopsora Pachyrhizi) | pest or weed control at 200 ppm [2]

CCOCC(=O)N(Cc1ccc(-c2noc(C(F)(F)F)n2)cc1)C(C)CC (stereo not drawn) [Compound 1.383, 2-ethoxy-N-sec-butyl-N-[[4-[5-(trifluoromethyl)-1,2,4-oxadiazol-3-yl]phenyl]methyl]-acetamide]
≥ 80%: pest or weed control at 200 ppm [1] | pest or weed control at 200 ppm (Phakopsora Pachyrhizi) | pest or weed control at 200 ppm [2]

O=C(OCCN(Cc1ccc(-c2noc(C(F)(F)F)n2)cc1)C(=O)C1CCOC1)C1CCOC1 (stereo not drawn) [Compound 1.712, 2-(tetrahydrofuran-3-carbonyl-[[4-[5-(trifluoromethyl)-1,2,4-oxadiazol-3-yl]phenyl]methyl]-amino]ethyl tetrahydrofuran-3-carboxylate]
≥ 80%: pest or weed control at 200 ppm [1] | pest or weed control at 200 ppm (Phakopsora Pachyrhizi) | pest or weed control at 200 ppm [2]
